Results on one compound are retold here after PMC6094173, “Releasable and traceless PEGylation of arginine-rich antimicrobial peptides” (Chemical Science, 2017).

One series has as its system E. coli B. It counts as cell-based, Escherichia coli B. To be noted: 16 h. On the procedure:
(§1) In order to validate that the PEGylated AMPs are resistant to proteolysis, [3 + 2a] (2 kDa) was incubated in ∼90% human serum (final concentration) spiked with 0.01 wt% trypsin for up to 24 h. To prevent de-PEGylation during this incubation period (i.e., to test the protease-resistance of the conjugate rather than the released AMP (known to be degradable; vide infra)), the concentration of [3 + 2a] was maintained high, and a small excess of free 2a was kept in solution. Based on Fig. 2 and 4, these conditions promote the forward PEGylation reaction and disfavor de-PEGylation. Following the incubation period (1 h, 6 h, or 24 h), serum proteins and trypsin were removed to stop proteolysis, and the integrity of the AMP 3 within the conjugate was evaluated via its anti-proliferative effect on E. coli. […]
reaction by HPLC using the fluorescence detector. Kinetics were monitored in triplicate. […]
To determine peptide content, a known mass of conjugate was dissolved in 500 µL D2O, and the absorbance of the solution at 452 nm (the FITC dye on the peptide) was compared to a standard curve obtained with the pure peptide. Then, to deter mine the number of moles of mPEG within this solution, a small amount (5 µL) of dimethyl sulfoxide was quantitatively added to a known volume of the D2O solution, and a 1H NMR spectrum recorded. […]

A further series concerns trypsin. As to the kind of experiment: Resistance to proteolysis in human serum spiked with trypsin, read out by antibacterial activity. In kind it is in vitro ADME. To be noted: ∼90% human serum with 0.01 wt% trypsin, r.t.; read-out anti-proliferative effect on E. coli. Here is the method:
as §1
[…] 5 h t o obtain mid-logarithmic phase organisms (10^9 cfu· mL –1). […] After this period, proteins were immediately removed by addition of 1.5 mL acetonitrile, sedimentation of precipitate by centrifugation, quantitative recovery of the supernatant, and drying by freeze-drying (FreeZone 4.5, Labconco). […] After addition of analyte to the w el l, the mi cr op lat e was in cub at ed at 37 °C for 16 h with shaking, and growth inhibition was determined by measuring absorbance at 620 nm using a Cytation 5 multi- mode microplate reader (BioTek Inc., VT). […]

Square brackets hold non-standard residues; d marks the D form. Peptide text beside a SMILES is read from it. * marks the point of attachment. FITC = O=C1OC2(c3ccc(O)cc3Oc3cc(O)ccc32)c2ccc(NC(=S)*)cc21; Ahx = NCCCCCC(=O)O

In general, IC50 refers to the midpoint of a concentration-inhibition curve. A lower IC50 goes with greater potency. In the case of `CC[C@@H](C)[C@@H](NC(=O)[C@H](CCCNC(=N)N)NC(=O)[C@H](CCC(N)=O)NC(=O)[C@@H](NC(=O)[C@H](NC(=O)[C@H](CCCNC(=N)N)NC(=O)[C@H](CCCCN)NC(=O)[C@H](Cc1ccccc1)NC(=O)CNC(=O)CCCCCNC(=S)Nc1ccc2c(c1)C(=O)OC21c2ccc(O)cc2Oc2cc(O)ccc21)[C@H](C)CC)C(C)C)C(=O)N[C@@H](CCCCN)C(=O)N[C@@H](CC(=O)O)C(=O)N[C@@H](Cc1ccccc1)C(=O)N[C@H](CC(C)C)C(=O)N[C@@H](CCCNC(=N)N)C(=O)N[C@@H](CC(N)=O)C(=O)N[C@@H](CC(C)C)C(=O)N[C@H](C(N)=O)C(C)C` [compound 3] ({FITC-Ahx}-GFKR[dI]VQR[dI]KDF[dL]RNLV-NH2), 8 ± 5 µM corresponded to half-maximal inhibition in the series with E. coli B (IC50). Also, the “Time to loss of antimicrobial properties in trypsin-spiked serum” value in the series on trypsin is “less than 6 h”.
